Results on one compound are retold here after publication PMC3951181, “Rosamines Targeting the Cancer Oxidative Phosphorylation Pathway” (PLoS ONE, 2014).

Assay [1] relates to HK-1 nasopharyngeal squamous carcinoma cells. The assay can be described thus: MTT cell viability assay, 48 h. Format: cell-based. As to conditions: Homo sapiens, 48 h post-treatment, mean ± SD. As to the method:
(§1) MCF-7 breast carcinoma and HCT-116 colon carcinoma cell lines were obtained from American Tissue Culture Collection (Virginia, USA) and maintained in RPMI 1640 medium supplemented with 10% FBS. HSC-2 oral cavity human squamous carcinoma cells were obtained from Health Science Research Resources Bank (Japan). HK-1, a previously characterized nasopharyngeal squamous carcinoma cells is a gift by Prof. Wong Y.C. from the University of Hong Kong. Both cell lines were grown in MEM medium supplemented with 10% FBS. For cell viability assay, cells at 4000 cells/well in 80 µl of medium were inoculated in 96-well plates and were allowed to adhere overnight. Cells were then treated with each compound at concentrations ranging from 0.001–10 µM giving the final volume of 100 µl in each well. At the end of incubation period, 15 µl of 5.0 mg/ml MTT in phosphate buffered saline (PBS) was added and incubated for 4 h. Medium and excessive MTT were aspirated and the resulting formazan was solubilized with 100 µl of dimethyl sulfoxide. Absorbance was read at 570 nm with SpectraMax M4 microplate spectrophotometer (Molecular Devices, CA).
(§2) The in vitro antitumor activity of rosamines was assessed using a 48 h endpoint cell viability methylthiazolyldiphenyl-tetrazolium bromide (MTT) assay against a panel of solid human tumor cell lines including breast carcinoma (MCF-7), colon carcinoma (HCT-116), oral squamous cell carcinoma (HSC-2) and nasopharyngeal carcinoma (HK-1). […] Within the halide series, cytotoxicities increase in the following order 4>3>[…] (Cl>Br>I), although not statistically significant (P>0.05).

For assay [2], the system named is HCT-116 colon carcinoma. The assay can be described thus: MTT cell viability assay, 48 h. The format is cell-based. As to conditions: Homo sapiens, 48 h post-treatment, mean ± SD. As to the method:
as §1, §2

Assay [3] deals with HSC-2 oral cavity human squamous carcinoma cells. Put plainly: MTT cell viability assay, 48 h. Format: cell-based. Particulars: 48 h post-treatment, mean ± SD. As to the method:
as §1, §2

The subject of assay [4] is MCF-7 breast carcinoma. Put plainly: MTT cell viability assay, 48 h. Format: cell-based. Particulars: Homo sapiens, MCF7, 48 h post-treatment, mean ± SD. On the procedure:
as §1, §2

In assay [5] the test system is NCI-60 human tumor cell lines. Put plainly: NCI-60 screen, sulforhodamine B, whole panel. Particulars: overall value for the NCI-60 cell lines screen. Format: cell-based. As to the method: NCI-60 cell panel screening was performed by the NCI/National Institutes of Health developmental therapeutics program (Bethesda, US). This platform allows the determination of growth inhibitory profiles of test compounds on 60 different human cancer cell lines, representing leukemia, melanoma and cancers of the lung, colon, central nervous system, ovary, breast, prostate, and renal subpanel. Sulforhodamine B assay was used to assess the cytotoxicity of test agents in a panel of 60 cell lines. Briefly, the human tumor cell lines of the cancer screening panel were grown in RPMI 1640 medium containing 5% FBS and 2 mM L-glutamine. For a typical screening experiment, cells were inoculated into 96 well microtiter plates in 100 µl at plating densities depending on the doubling time of individual cell lines. After cell inoculation, the microtiter plates are incubated at 37°C, 5% CO2 and 100% relative humidity for 24 h. Following incubation, aliquots of 100 µl of compound at different dilutions were added to the appropriate microtiter wells and were further incubated for 48 h. At the assay end-point, cells were fixed with trichloroacetic acid followed by Sulforhodamine B staining for cellular protein content. Sulforhodamine B absorbance was read at a wavelength of 515 nm as a measurement of cell density.

The target in assay [6] is ATP synthase (Mus musculus, UniProt P56480+Q03265). Put plainly: Immunocapture ELISA microplate enzyme activity assay. As to conditions: read-out: IC50 ATP synthase activity; mouse liver mitochondria extract; 0.01–10 µM.
Experimental: Functional mitochondria were isolated from mouse liver by differential centrifugation method [14]. Briefly, a mouse (∼30 g) was starved overnight before sacrificed by cervical dislocation. The liver was harvested promptly and rinsed with ice-cold mitochondria isolation buffer (10 mM Tris-MOPS, 1 mM EGTA/Tris, 0.2 M sucrose, pH 7.4) until blood-free. The liver was then cut into small pieces in a beaker using scissors while keeping in an ice-bath. The buffer was replaced with 5 ml of fresh isolation buffer and the liver was homogenized with a Polytron probe (Ultra-Turrax T8, Ika-Werke, Germany) until smooth. The homogenate was centrifuged at 1000 g for 15 min at 4°C. The pellet was discarded and the supernatant was centrifuged at 12000 g for 15 min at 4°C to pellet the mitochondria. The mitochondria were washed twice by resuspending in 4 volumes of isolation buffer containing 1× protease cocktail inhibitor. The concentration of the mitochondrial protein was determined using the Bradford (Biorad protein assay) method. […]
In general, plate pre-coated with appropriate immunocapture antibody was incubated with mitochondria extract at recommended concentration to allow immobilization of their respective complexes. Complexes activity was measured by addition of substrates solution mix provided by the kit and compound was added at concentration ranging from 0.01–10 µM in triplicate. […]
The subject of assay [7] is HSC-2 cells. Put plainly: JC-1 analysis of mitochondrial membrane potential. As to conditions: 0.1 µM, untreated control about 8% at 8 h. The format is cell-based, human. On the procedure: The mitochondrial membrane potential was measured based on the potential–dependent accumulation of the cationic JC-1 dye which results in a shift of fluorescence emission from green (∼525 nm) to red (∼590 nm) due to the formation of J-aggregates. Therefore, mitochondrial depolarization is indicated by a decrease in the red/green fluorescence intensity ratio. Briefly, cells were collected and suspended in 1 ml warm media at approximately 1×10^6 cell/ml. In a control tube, 1 µl of 50 mM CCCP was added and incubated at 37°C for 5 min. Then, 10 µl of 200 µM JC-1 was added into the cells and incubated at 37°C for 30 min. Cells were washed twice with warm PBS, resuspended in 500 µl of PBS and analyzed on a FACSCalibur flow cytometer using 488 nm excitation with 530/30 nm and 585/42 nm bandpass emission filters.
Meanwhile, the mitochondrial transmembrane potential loss was more prominent in HSC-2 cells treated with 5 at 0.1 µM. Approximately 21% (P<0.05) of the cell population was affected in the first hour and the percentage increased drastically to 34% in 8 h. For the untreated control cells, the population of depolarized cells at 8 h remained at approximately 8%. […] CCCP is an oxidative phosphorylation decoupling agent which acts as a positive control for the experiment.

Assay [8] concerns the target Complex IV (Mus musculus, UniProt P00397+P00405+P00416). The assay can be described thus: Immunocapture ELISA microplate enzyme activity assay. Particulars: read-out: IC50 Complex IV activity; mouse liver mitochondria extract; 0.01–10 µM.
In assay [9] the target is Complex I. The assay is described as above. Format: biochemical. As to conditions: mouse liver mitochondria extract; 0.01–10 µM.

`c1csc(-c2c3ccc(=[N+]4CCCCC4)cc-3oc3cc(N4CCCCC4)ccc23)c1` [Rosamine 5]: the IC50 is 100 nM in assay [1]; 70 ± 20 nM in assay [2]; 90 ± 10 nM in assay [3]; 180 ± 20 nM in assay [4]; 3000 ± 800 nM in [6]; greater than 10000 nM in assay [8]. In assay [9], the IC50 was greater than 10000 nM. The same compound returned a GI50 in assay [5] (Homo sapiens) of 100 nM. In addition, the Log10GI50 in assay [5] was −7. Further, the “cell population with mitochondrial transmembrane potential loss” value in [7] (8 h) is 34%; in [7] (within 1 h after treatment) it was “Approximately 21%”.
